Results on one compound are retold here after ChEMBL document CHEMBL1649188, “Posaconazole therapeutic drug monitoring: a reference laboratory experience” (Antimicrob Agents Chemother, 2009).

What all share (type): ADME, organism-based
Holding throughout (conditions): in vivo

Data set [1] is filed under the species Homo sapiens. Put plainly: Drug level in patient serum with invasive aspergillosis by HPLC analysis.
The species entered for data set [2] is Homo sapiens. Put plainly: Drug level in patient serum with acute graft-versus-host disease by HPLC analysis.
The species entered for data set [3] is Homo sapiens. Put plainly: Drug level in patient serum with chronic graft-versus-host disease by HPLC analysis.
The species entered for data set [4] is Homo sapiens. Put plainly: Drug level in patient serum with infection by HPLC analysis.

Molecules are shown by their SMILES.

For `CC[C@@H]([C@H](C)O)n1ncn(-c2ccc(N3CCN(c4ccc(OC[C@@H]5CO[C@@](Cn6cncn6)(c6ccc(F)cc6F)C5)cc4)CC3)cc2)c1=O` [POSACONAZOLE], the Drug uptake in the data set filed under Homo sapiens [1] turned out to be 0.134 µg/mL; in the data set filed under Homo sapiens [2], 0.958 µg/mL; in the data set listed under Homo sapiens [3] it was 1.47 µg/mL; in the data set listed under Homo sapiens [4], 0.611 µg/mL.
